The target in the experiment is Diamine oxidase AOC1 (Homo sapiens). Description: Inhibition of recombinant human DAO using putrescine as substrate preincubated with enzyme for 30 mins followed by substrate addition and measured every 2.5 mins for 30 mins by Amplex-Red oxidation assay.

In general, IC50 refers to the concentration at which inhibition is half-maximal. Regarding `Cc1c(-c2cccc(S(=O)(=O)N(C)C)c2)c2ccccc2n1CC(F)=CCN`, the IC50 is 3.98 µM.

Consider `Cc1c(-c2cccc(S(=O)(=O)N(C)C)c2)c2cc(C(=O)O)ccc2n1CC(F)=CCN`, for which the IC50 was over 10 µM.

The record behind these values is BindingDB's records for doi:10.1021/acs.jmedchem.9b01283 (Pharmaxis, 2019).
